The text below walks through data of US7582611B2, “Motilide compounds” (Pfizer Inc., priority 2005, dated 2009).

SMILES strings stand for the structures. In brackets after ≈: the same amount, converted by molar mass.

For test [1], the system named is Streptococcus pneumoniae ATCC 6301. The test is described as follows: Evaluation of antibacterial activity (MIC, serial dilutions on 96-well microtiter plates). The note with it: ATCC6301, read-out: Antibacterial Activity (MIC, μg/mL). The class given is cell-based.
Another test has as its target T1, Motilin Receptor (Oryctolagus cuniculus, UniProt G1T803).
T1 construct: strips of longitudinal smooth muscle were sliced from the segments; from tissue; host or cells: rabbit duodenum longitudinal smooth muscle strips
The test is described as follows: Tissue based assay for motilin agonist potency (rabbit duodenum contractility). The note with it: rabbit duodenum strips, contraction normalized to 1 μM carbachol; read-out: Motilin Receptor Agonist Activity (EC50). The class given is cell-based. The protocol:
The motilin agonist potencies of compounds of this invention were evaluated using a tissue based assay, using rabbit duodenum tissue-based contractility assay, generally following the procedure of Depoortere et al., J. Gastrointestinal Motility, 1, 150-159 (1989), the disclosure of which is incorporated herein by reference. Briefly, this method measures the ability of a compound to induce contractions in rabbit duodenal tissue, a motilin receptor-bearing tissue contractilely responsive to motilin.
Strips of rabbit duodenum were tested and qualified for use in the assay by as follows. Segments of rabbit duodenum, 20-30 cm distal to the pylorus were split longitudinally. The mucosa was removed and 2×2×15 mm strips of longitudinal smooth muscle were sliced from the segments. The strips were bathed in oxygenated Krebs solution at 37° C., with 1.5 g of tension, and contractions measured auxotonically.
The carbachol was then washed away by changing the organ bath buffer twice. The strips were washed again 20±5 minutes following the carbachol contraction. Following this last wash a dose response study was initiated within 10±5 min. Each compound tested was dissolved in dimethylsulfoxide (DMSO) to a final concentration of 10 mM. A series of seven 10× serial dilutions in water was prepared, so that the concentration of the seventh serial dilution was 1.0×10^−6 mM. The first through fifth serial dilutions of the compound were applied, starting with 200 μL of the most dilute solution. After each application, there was a wait of 2±0.5 min, until the response was stable, before the application of the next dose (the next higher concentration serial dilution). The dose was increased in 10-fold increments until a small response was observed. Subsequent doses were the increased in 2- to 5-fold increments, until the maximum response was obtained. At 2±0.5 min after the last drug addition, the strips were dosed with 1 μM carbachol.
The EC50 (concentration producing a half-maximal effect) was calculated as follows. The basal tension was subtracted from the compound-induced tension for each reading. The data points were normalized against the response obtained from 1 μM carbachol at the end of the experiment. The concentration of compound was plotted against the response and fitted to the following equation: R=(Rmax·C)/(EC50+C) where R is the contraction response, Rmax is the maximal contraction response, and C is the concentration of compound. Both R and Rmax are expressed as a fraction of the 1 μM carbachol contraction and range from 0 to 1.

T1 sequence (G1T803 1-400): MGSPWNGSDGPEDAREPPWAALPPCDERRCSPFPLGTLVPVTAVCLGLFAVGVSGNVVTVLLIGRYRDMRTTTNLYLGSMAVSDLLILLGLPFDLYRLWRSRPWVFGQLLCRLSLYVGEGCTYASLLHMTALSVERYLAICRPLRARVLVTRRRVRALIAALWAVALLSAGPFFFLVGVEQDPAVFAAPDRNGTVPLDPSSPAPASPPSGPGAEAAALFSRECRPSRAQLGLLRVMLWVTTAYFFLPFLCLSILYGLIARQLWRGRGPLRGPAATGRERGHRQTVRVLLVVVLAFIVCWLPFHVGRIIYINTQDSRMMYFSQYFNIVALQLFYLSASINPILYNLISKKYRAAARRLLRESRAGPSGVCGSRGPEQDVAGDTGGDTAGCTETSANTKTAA

The EC50 is the concentration that produces a half-maximal response. With `CC[C@H]1OC(=O)[C@H](C)[C@@H](O[C@H]2C[C@@](C)(OC)[C@@H](O)[C@H](C)O2)[C@H](C)[C@@H](O[C@@H]2O[C@H](C)C[C@H](N(C)C(C)C)[C@H]2O)[C@](C)(O)C[C@@H](C)[C@H](OCC(=O)NCCO)[C@H](C)[C@@H](O)[C@]1(C)O` [Compound A-34], the MIC in test [1] was 128 µg/mL (≈ 148 µM). Besides, the EC50 on Motilin Receptor is 120 nM.

For the compound `CC[C@H]1OC(=O)[C@H](C)[C@@H](O[C@H]2C[C@@](C)(OC)[C@@H](O)[C@H](C)O2)[C@H](C)[C@@H](O[C@@H]2O[C@H](C)C[C@H](N(C)C[C@H](C)O)[C@H]2O)[C@](C)(O)C[C@@H](C)[C@H](OCC(N)=O)[C@H](C)[C@@H](O)[C@]1(C)O` [Compound A-14], the MIC in test [1] was above 128 µg/mL. The EC50 at Motilin Receptor amounted to 104 nM.

With `CC[C@H]1OC(=O)[C@H](C)[C@@H](O[C@H]2C[C@@](C)(OC)[C@@H](O)[C@H](C)O2)[C@H](C)[C@@H](O[C@@H]2O[C@H](C)C[C@H](N(C)C(C)C)[C@H]2O)[C@](C)(O)C[C@@H](C)[C@H](OCc2csc(C)n2)[C@H](C)[C@@H](O)[C@]1(C)O` [Compound A-26], the MIC in test [1] came out at 128 µg/mL (≈ 146 µM). Also, on Motilin Receptor, the EC50 amounted to 480 nM.

With `CC[C@H]1OC(=O)[C@H](C)[C@@H](O[C@H]2C[C@@](C)(OC)[C@@H](O)[C@H](C)O2)[C@H](C)[C@@H](O[C@@H]2O[C@H](C)C[C@H](N(C)C(C)C)[C@H]2O)[C@](C)(O)C[C@@H](C)[C@H](OCC(=O)Nc2ccncn2)[C@H](C)[C@@H](O)[C@]1(C)O` [Compound A-77], the MIC in test [1] was above 128 µg/mL. Also, the EC50 at Motilin Receptor came out at 25 nM.

Regarding `CC[C@H]1OC(=O)[C@H](C)[C@@H](O[C@H]2C[C@@](C)(OC)[C@@H](O)[C@H](C)O2)[C@H](C)[C@@H](O[C@@H]2O[C@H](C)C[C@H](N(C)C(C)C)[C@H]2O)[C@](C)(O)C[C@@H](C)[C@H](OCC(N)=O)[C@H](C)[C@@H](O)[C@]1(C)O` [Compound A-12], the MIC in test [1] came out at 64 µg/mL (≈ 77.9 µM). Besides, at Motilin Receptor, the EC50 came to 52 nM.

For `CC[C@H]1OC(=O)[C@H](C)[C@@H](O[C@H]2C[C@@](C)(OC)[C@@H](O)[C@H](C)O2)[C@H](C)[C@@H](O[C@@H]2O[C@H](C)C[C@H](N(C)C(C)C)[C@H]2O)[C@](C)(O)C[C@@H](C)[C@H](OCC(=O)Nc2cnccn2)[C@H](C)[C@@H](O)[C@]1(C)O` [Compound A-70], the MIC in test [1] was found to be 128 µg/mL (≈ 142 µM). On Motilin Receptor, the concentration giving a half-maximal response (EC50) is 60 nM.

In the case of `CC[C@H]1OC(=O)[C@H](C)[C@@H](O[C@H]2C[C@@](C)(OC)[C@@H](O)[C@H](C)O2)[C@H](C)[C@@H](O[C@@H]2O[C@H](C)C[C@H](N(C)C(C)C)[C@H]2O)[C@](C)(O)C[C@@H](C)[C@H](OCCCCC(=O)NC)[C@H](C)[C@@H](O)[C@]1(C)O` [Compound A-74], the MIC in test [1] turned out to be 128 µg/mL (≈ 146 µM). On Motilin Receptor, the concentration giving a half-maximal response (EC50) was determined as 270 nM.

Regarding `CC[C@H]1OC(=O)[C@H](C)[C@@H](O[C@H]2C[C@@](C)(OC)[C@@H](O)[C@H](C)O2)[C@H](C)[C@@H](O[C@@H]2O[C@H](C)C[C@H](N(C)C(C)C)[C@H]2O)[C@](C)(O)C[C@@H](C)[C@H](OCC(=O)NCC(F)(F)F)[C@H](C)[C@@H](O)[C@]1(C)O` [Compound A-52], the MIC in test [1] came out at 128 µg/mL (≈ 142 µM). For the same compound, the EC50 on Motilin Receptor worked out at 160 nM.

`CC[C@H]1OC(=O)[C@H](C)[C@@H](O[C@H]2C[C@@](C)(OC)[C@@H](O)[C@H](C)O2)[C@H](C)[C@@H](O[C@@H]2O[C@H](C)C[C@H](N(C)C(C)C)[C@H]2O)[C@](C)(O)C[C@@H](C)[C@H](OCC#N)[C@H](C)[C@@H](O)[C@]1(C)O` [Compound A-7]: the MIC in test [1] is above 128 µg/mL. The concentration for a half-maximal effect (EC50) at Motilin Receptor came out at 210 nM.

Regarding `CC[C@H]1OC(=O)[C@H](C)[C@@H](O[C@H]2C[C@@](C)(OC)[C@@H](O)[C@H](C)O2)[C@H](C)[C@@H](O[C@@H]2O[C@H](C)C[C@H](N(C)C(C)C)[C@H]2O)[C@](C)(O)C[C@@H](C)[C@H](OCCCCCC(N)=O)[C@H](C)[C@@H](O)[C@]1(C)O` [Compound A-50], the MIC in test [1] is above 128 µg/mL. Further, the EC50 on Motilin Receptor worked out at 170 nM.

For `CC[C@H]1OC(=O)[C@H](C)[C@@H](OC2C[C@@](C)(OC)C[C@H](C)O2)[C@H](C)[C@@H](OC2O[C@H](C)C[C@H](N(C)CC)[C@H]2O)[C@@]2(C)CC(C)=C(O2)[C@H](C)[C@@H](O)[C@H]1C` (some centres unmarked) [ABT-229, reference compound], the MIC in test [1] was 64 µg/mL (≈ 91.7 µM). Moreover, the EC50 on Motilin Receptor is 7 nM.

For the compound `CC[C@H]1OC(=O)[C@H](C)[C@@H](O[C@H]2C[C@@](C)(OC)[C@@H](O)[C@H](C)O2)[C@H](C)[C@@H](O[C@@H]2O[C@H](C)C[C@H](N(C)C(C)C)[C@H]2O)[C@](C)(O)C[C@@H](C)[C@H](OCc2nc[nH]n2)[C@H](C)[C@@H](O)[C@]1(C)O` [Compound A-55], the MIC in test [1] is above 128 µg/mL. The EC50 on Motilin Receptor stood at 54 nM.

In the case of `CC[C@H]1OC(=O)[C@H](C)[C@@H](O[C@H]2C[C@@](C)(OC)[C@@H](O)[C@H](C)O2)[C@H](C)[C@@H](O[C@@H]2O[C@H](C)C[C@H](N(C)C(C)C)[C@H]2O)[C@](C)(O)C[C@@H](C)[C@H](OCC(=O)NC2CC2)[C@H](C)[C@@H](O)[C@]1(C)O` [Compound A-46], in test [1], the MIC is 128 µg/mL (≈ 149 µM). On Motilin Receptor, the EC50 is 31 nM.

For `CC[C@H]1OC(=O)[C@H](C)[C@@H](O[C@H]2C[C@@](C)(OC)[C@@H](O)[C@H](C)O2)[C@H](C)[C@@H](O[C@@H]2O[C@H](C)C[C@H](N(C)C(C)C)[C@H]2O)[C@](C)(O)C[C@@H](C)[C@H](OCCNC(=O)OC)[C@H](C)[C@@H](O)[C@]1(C)O` [Compound A-65], the MIC in test [1] is 128 µg/mL (≈ 148 µM). The concentration for a half-maximal effect (EC50) at Motilin Receptor was 130 nM.

Take `CC[C@H]1OC(=O)[C@H](C)[C@@H](O[C@H]2C[C@@](C)(OC)[C@@H](O)[C@H](C)O2)[C@H](C)[C@@H](O[C@@H]2O[C@H](C)C[C@H](N(C)C(C)C)[C@H]2O)[C@](C)(O)C[C@@H](C)[C@H](OCC(=O)N(C)C)[C@H](C)[C@@H](O)[C@H]1C` [Compound A-72]: the MIC in test [1] is above 128 µg/mL. Also, on Motilin Receptor, the EC50 was determined as 270 nM.

As for `CC[C@H]1OC(=O)[C@H](C)[C@@H](O[C@H]2C[C@@](C)(OC)[C@@H](O)[C@H](C)O2)[C@H](C)[C@@H](O[C@@H]2O[C@H](C)C[C@H](N(C)C(C)C)[C@H]2O)[C@](C)(O)C[C@@H](C)[C@H](OCCCCCC(=O)NC)[C@H](C)[C@@H](O)[C@]1(C)O` [Compound A-76], the MIC in test [1] was 128 µg/mL (≈ 144 µM). In addition, on Motilin Receptor, the EC50 worked out at 150 nM.

Regarding `CC[C@H]1OC(=O)[C@H](C)[C@@H](O[C@H]2C[C@@](C)(OC)[C@@H](O)[C@H](C)O2)[C@H](C)[C@@H](O[C@@H]2O[C@H](C)C[C@H](N(C)C(C)C)[C@H]2O)[C@](C)(O)C[C@@H](C)[C@H](NS(=O)(=O)C2CC2)[C@H](C)[C@@H](O)[C@]1(C)O` [Compound A-41], the MIC in test [1] was found to be 128 µg/mL (≈ 148 µM). On Motilin Receptor, the EC50 was found to be 170 nM.

`CC[C@H]1OC(=O)[C@H](C)[C@@H](O[C@H]2C[C@@](C)(OC)[C@@H](O)[C@H](C)O2)[C@H](C)[C@@H](O[C@@H]2O[C@H](C)C[C@H](N(C)C(C)C)[C@H]2O)[C@](C)(O)C[C@@H](C)[C@H](OCCNS(C)(=O)=O)[C@H](C)[C@@H](O)[C@]1(C)O` [Compound A-32]: the MIC in test [1] was above 128 µg/mL. The EC50 on Motilin Receptor stood at 240 nM.

As to `CC[C@H]1OC(=O)[C@H](C)[C@@H](O[C@H]2C[C@@](C)(OC)[C@@H](O)[C@H](C)O2)[C@H](C)[C@@H](O[C@@H]2O[C@H](C)C[C@H](N(C)C3CCC3)[C@H]2O)[C@](C)(O)C[C@@H](C)[C@H](OCC(=O)OC)[C@H](C)[C@@H](O)[C@]1(C)O` [Compound A-23], in test [1], the MIC is above 128 µg/mL. Moreover, at Motilin Receptor, the EC50 stood at 560 nM.

With `CC[C@H]1OC(=O)[C@H](C)[C@@H](O[C@H]2C[C@@](C)(OC)[C@@H](O)[C@H](C)O2)[C@H](C)[C@@H](O[C@@H]2O[C@H](C)C[C@H](N(C)C(C)C)[C@H]2O)[C@](C)(O)C[C@@H](C)[C@H](OS(=O)(=O)N(C)C)[C@H](C)[C@@H](O)[C@]1(C)O` [Compound A-19], the MIC in test [1] was determined as 128 µg/mL (≈ 147 µM). In addition, the EC50 at Motilin Receptor stood at 91 nM.

`CC[C@H]1OC(=O)[C@H](C)[C@@H](O[C@H]2C[C@@](C)(OC)[C@@H](O)[C@H](C)O2)[C@H](C)[C@@H](O[C@@H]2O[C@H](C)C[C@H](N(C)C(C)C)[C@H]2O)[C@](C)(O)C[C@@H](C)[C@H](OCCO)[C@H](C)[C@@H](O)[C@]1(C)O` [Compound A-3]: the MIC in test [1] worked out at 64 µg/mL (≈ 79.2 µM). Also, the EC50 at Motilin Receptor was 54 nM.

In the case of `CC[C@H]1OC(=O)[C@H](C)[C@@H](O[C@H]2C[C@@](C)(OC)[C@@H](O)[C@H](C)O2)[C@H](C)[C@@H](O[C@@H]2O[C@H](C)C[C@H](N(C)C(C)C)[C@H]2O)[C@](C)(O)C[C@@H](C)[C@H](NS(=O)(=O)CC)[C@H](C)[C@@H](O)[C@]1(C)O` [Compound A-40], the MIC in test [1] is 128 µg/mL (≈ 150 µM). Moreover, the EC50 on Motilin Receptor came out at 350 nM.
